Measured values: patent publication US7964598B2 (The J. David Gladstone Institutes, priority 1995, dated 2011)
“Also recorded” adds a separate entry of the source.

Tests used:
Neuro-2a cells = experiment: Aβ-induced apoptosis (DNA fragmentation assay); type: cell-based, mouse
Method: DNA Fragmentation Assay—DNA fragmentation of apoptotic cells was determined with Cell Death Detection ELISA kits (Roche, Indianapolis, Ind.).
FIG. 38. […] Control cells were not treated with Aβ1-42. Apoptotic cell death was measured with a DNA fragmentation assay. Values are the mean±S.D. of three separate experiments.
FIGS. 39A and 39B. […] Lysosomal leakage was quantitated by assaying cytosolic 0-hexosaminidase activity. […] Conditioned media were prepared as described above. Apoptosis was quantitated by measuring DNA fragmentation.

B103 cells = experiment: Toxicity to B103 cells; type: cell-based, rat; details: at the micromole level
YFP-apoE4-CFP = biological target: T1, YFP-apoE4-CFP (Homo sapiens, UniProt P02649, C130R); experiment: Cell-based FRET assay, YFP-apoE4-CFP; details: 5-20 μM
T1 construct: vector signal peptide (pFLAG-CMV3) (N); FLAG (N); expressed in transfected cells
Description: Xu et al. (2004) J. Biol. Chem. 279:25511-25516. FRET—the non-radioactive transfer of photon energy from an excited fluorophore (donor) to another fluorophore (acceptor)—occurs only when the donor and acceptor are in close proximity (<100 Å). Thus, this approach can be used to measure nanometer scale distances.
Xu et al. (2004) J. Biol. Chem. 279:25511-25516. The constructs are depicted schematically in FIG. 29.
Since the emission spectrum of CFP (460-520 nm) overlaps with the excitation spectrum of YFP (480-520 nm), FLEXstation (Molecular Devices) can be used to measure FRET in living cells expressing YFP-apoE3-CFP or YFP-apoE4-CFP in a high throughput manner. […] Thus, the ratio of FRET to CFP emission in cells expressing YFP-apoE4-CFP is much higher than that in those expressing YFP-apoE3-CFP (FIG. 31). […] Since the FLEXstation can read FRET in both cells and the culture media treated without or with various small molecules, this assay allows one to know whether a small molecule affects apoE4 domain interaction only in the medium (“medium FRET”) or also inside the cell (“intracellular FRET”). In addition, after measurement of the intracellular FRET, the cells can be incubated further with MTT to determine the cytotoxicity of the compound. Thus, the cell-based FRET assay can simultaneously provide three sets of data-intracellular FRET, medium FRET, and cytotoxicity.
Quantifying FRET in Transfected Neuro-2a Cells—Stably transfected Neuro-2a cells expressing YFP-apoE3-CFP or YFP-apoE4-CFP at similar levels were selected by fluorescence activated cell sorter (FACS). YFP and CFP images of transfected cells were acquired with the Meta Detector, and their fluorescence intensities were analyzed with the mounted computer. The FRET signal was calculated as the ratio of YFP to CFP fluorescence intensity under CFP excitation. For each YFP-apoE-CFP construct, the FRET signal was measured in at least 12 cells from different fields.
Quantifying FRET in the Culture Medium—Neuro-2a cells stably expressing YFP-apoE3-CFP or YFP-apoE4-CFP and wildtype cells were grown in T175 flasks to 90% confluence and incubated with serum-free minimum essential medium containing N2 supplement for 24 h. The conditioned medium (20 ml/flask) was concentrated about 20-fold with Centriplus-YM-10 concentrators (Amicon, Bedford, Mass.), dialyzed against PBS, illuminated at the CFP excitation wavelength (430 nm), and scanned for emission spectrum. The FRET signal was calculated as the ratio of emission at 525 nm (YFP) to that at 475 nm (CFP). Conditioned medium from cells expressing apoE3-CFP or apoE4-CFP was used to determine baseline fluorescence in the absence of FRET.

[1] = test system: apoE4 enhancement of Aβ production; experiment: Aβ production assay, B103-APP cells incubated with apoE4; type: cell-based, rat
Method: (§1) Aβ production assay. Stable neuroblastoma B103 cell lines transfected with a wildtype hAPP cDNA construct (B 103-APP) were selected by growing them in Dulbecco's modified Eagle's medium (DMEM) containing 10% fetal calf serum (FBS) and 400 μg/ml G418. A cell line expressing APP at similar levels in mouse brains has been identified by RNase protection assay (RPA) and was used in the studies described below. To determine Aβ production, B103-APP cells were incubated with serum-free minimal essential medium (MEM) containing N2 supplements with or without apoE isoforms for 24 h at 37° C. After incubation, 50 μl of medium was collected and assayed for Aβ levels with an ELISA method. The cells were lysed, and cellular proteins were determined by the Lowry method. AP production was normalized to cellular protein.
(§2) Cell Culture. Rat neuroblastoma B103 cells stably expressing human wildtype APP (hAPP695wt) (Xu et al. ((1999) Proc. Natl. Acad. Sci. USA 96:7547-7552; Esposito, et al. (2004) J. Neurochem. 91:1260-1274) were generated in Dr. Lennart Mucke's laboratory at the Gladstone Institute of Neurological Disease and maintained in Dulbecco's modified Eagle's medium (DMEM) (GIBCO, Grand Island, N.Y.) containing 400 μg/ml G418, 10% fetal bovine serum, and 5% horse serum at 37° C. Twenty-four hours after plating into 48-well plates (1×10^5 cells per well), cells were washed twice with serum-free DMEM and cultured for another 24 h in DMEM containing 1% N-2 supplement (GIBCO) to induce differentiation. The cells were treated with either β-VLDL (25 μg/ml cholesterol), recombinant human apoE isoform-enriched β-VLDL (7.5 μg/ml apoE and 25 μg/ml cholesterol), or recombinant human apoE (7.5 μg/ml apoE) in fresh DMEM containing 1% N-2 supplement for an additional 24 h. In some experiments, RAP (25 nM or 1 μM) was added to the cells 1 h before apoE treatment.
(§3) Aβ Assay. Aβ secreted into the medium was detected with a sandwich enzyme-linked immunosorbent assay (ELISA), using mAb 266 as a capturing antibody and 3D6 as a detecting antibody, as described. Johnson-Wood et al. ((1997) Proc. Natl. Acad. Sci. USA 94:1550-1555). Aβ was quantified from a standard curve (Aβ42; Bachem, Torrance, Calif.) and normalized by total cellular protein.

apoE3 = experiment: Aβ production assay, B103-APP cells incubated with apoE3; type: cell-based, rat; details: FIG. 22
Method: as §1, §2, §3

Water solubility = type: physicochemical

T1 sequence (P02649 19-317 C130R): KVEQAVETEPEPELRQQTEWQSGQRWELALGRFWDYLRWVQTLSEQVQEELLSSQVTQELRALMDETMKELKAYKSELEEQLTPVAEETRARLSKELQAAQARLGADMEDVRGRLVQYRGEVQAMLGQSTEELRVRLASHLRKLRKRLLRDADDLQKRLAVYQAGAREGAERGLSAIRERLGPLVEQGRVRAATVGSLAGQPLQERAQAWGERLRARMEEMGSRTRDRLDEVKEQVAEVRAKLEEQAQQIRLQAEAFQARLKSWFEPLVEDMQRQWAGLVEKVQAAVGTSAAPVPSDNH

ratio of FRET to CFP emission in the cells expressing YFP-apoE4-CFP (YFP-apoE4-CFP; intracellular): decreased significantly | ratio of FRET to CFP emission in media of YFP-apoE4-CFP cells (YFP-apoE4-CFP; medium): decreased significantly | water solubility (Water solubility): water-soluble
SMILES: O=S(=O)([O-])c1ccc2c(c1)c(Nc1ccc(S(=O)(=O)O)cc1)cc1c2nc2ccccc2[n+]1-c1ccccc1 [GIND-25, azocarmine-G]
apoptosis, cells with medium alone or medium containing apoE3 plus Aβ1-42 (Neuro-2a cells): no significant effect | apoE4 potentiation of Aβ-induced apoptosis (Neuro-2a cells; apoE4 conditioned medium, Aβ1-42): block; also recorded: abolish | toxicity to B103 cells (B103 cells): no significant toxicity | apoE4 enhancement of Aβ production ([1]; FIG. 22): abolished completely | enhancement of Aβ production by apoE4 ([1]; compound 5 μM preincubated with apoE 7.5 μg/ml 30 min, then 24 h with cells, FIG. 27D): abolish; also recorded: decreased Aβ production induced by apoE4 to levels similar to those induced by apoE3 | effect on apoE3 (Aβ production) (apoE3): no effect
